Source: article PMC7023430, “4-Aminobenzoic Acid Derivatives: Converting Folate Precursor to Antimicrobial and Cytotoxic Agents” (Biomolecules, 2019)
In brackets after ≈: the same amount, converted by molar mass. Like-named read-outs stand apart in the source and are kept apart here.

What was measured:
[1] = test system: Mycobacterium tuberculosis H37Rv (331/88); assay: Antimycobacterial micromethod in Šula's medium, M. tuberculosis; type: cell-based
Candida tropicalis 156 = assay: Antifungal microdilution broth method, C. tropicalis; type: cell-based
In short: (§1)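 MICs were scored by eye in duplicate runs, accepted when the two differed by no more than one twofold step. Medium was RPMI-1640 (L-glutamine, 2% glucose) buffered with MOPS at pH 7.0, with DMSO-dissolved compounds serially halved per modified EUCAST protocol.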

Candida krusei E28 = assay: Antifungal microdilution broth method, C. krusei; type: cell-based; settings: Pichia kudriavzevii
In short: as §1

Trichosporon asahii 1188 = assay: Antifungal microdilution broth method, T. asahii; type: cell-based
In short: as §1

eight fungal strains = assay: Antifungal activity; type: cell-based; settings: statement over the fungal panel; time not stated
Description: The antifungal properties were evaluated against five yeast strains, namely: Candida albicans ATCC 44859, Candida tropicalis 156, Candida krusei […], Candida glabrata 20/I, Trichosporon […] 1188 and three strains of filamentous fungi: Aspergillus fumigatus 231, Lichtheimia corymbifera 272, and Trichophyton interdigitale 445. A microdilution broth method was performed according to EUCAST II, III instructions with slight modifications. Briefly, tested compounds were dissolved in DMSO and diluted in a twofold manner with RPMI-1640 medium with L-glutamine, supplemented with 2% glucose (w/v) and buffered to pH 7.0 with 3 morpholinopropane-1-sulfonic acid (all components were purchased from Sigma-Aldrich, USA). […] Positive controls consisted of test microbe solely, while negative controls consisted of medium and DMSO. Internal quality control was included too. Visual inspection was used for MIC endpoints evaluation. The experiments were conducted in duplicates. For the results to be valid, the difference in MIC determined from two parallel measurements must not be greater than one step on the dilution scale. PABA and triazole antimycotic drug fluconazole were involved as the reference compounds.

[2] = test system: Klebsiella pneumoniae D 11750/08; assay: Antibacterial microdilution broth method, K. pneumoniae; settings: K. pneumoniae D 11750/08; for MIC KP 24 h: 24 h incubation; for MIC KP 48 h: 48 h incubation
[3] = test system: four Gram-positive and four Gram-negative strains; assay: Antibacterial activity; type: cell-based
[4] = test system: Mtb. 331/88 and three non-tuberculous mycobacterial strains; assay: Antimycobacterial activity; type: cell-based; settings: statement over four mycobacterial strains, time not stated
[5] = 336 h, 14 days incubation at 37 °C, read-out: MIC Mtb. 331/88 14 d
[6] = 504 h, 21 days incubation at 37 °C, read-out: MIC Mtb. 331/88 21 d
[7] = time not stated, read-out: MIC, S. epidermidis (1e MRSA, too)

| Structure (SMILES) | MIC [1, 5] | MIC [1, 6] | MIC (Candida tropicalis 156; 24 h, read-out: MIC CT 24 h) | MIC (Candida tropicalis 156; 48 h, read-out: MIC CT 48 h) | MIC (Candida krusei E28; 24 h, read-out: MIC CK 24 h) | MIC (Candida krusei E28; 48 h, read-out: MIC CK 48 h) | MIC (Trichosporon asahii 1188; 24 h, read-out: MIC TA 24 h) | MIC (Trichosporon asahii 1188; 48 h, read-out: MIC TA 48 h) | MIC (eight fungal strains) | MIC, antifungal activity (eight fungal strains) | MIC KP 24 h [2] | MIC KP 48 h [2] | MIC [3, 7] | MIC ([3]; Staphylococcus aureus, MRSA, time not stated, read-out: MIC, multiple Gram-positive strains including MRSA) | MIC ([3]; converted from 62.5–125 µM, read-out: MIC, staphylococci) | MIC ([3]; read-out: MIC, three staphylococcal strains) | MIC ([4]; Mycobacterium tuberculosis) | MIC, antibacterial activity ([3]; statement over the bacterial panel, time not stated) | MIC, antimycobacterial activity [4] |
| --- | --- | --- | --- | --- | --- | --- | --- | --- | --- | --- | --- | --- | --- | --- | --- | --- | --- | --- | --- |
| O=C(O)c1ccc(N=Cc2cc(F)ccc2O)cc1 [1b, 4-[(5-Fluoro-2-hydroxybenzylidene)amino]benzoic acid] | 500 µM (≈ 130 µg/mL) | 500 µM (≈ 130 µg/mL) | > 500 µM | > 500 µM | > 500 µM | > 500 µM | > 500 µM | > 500 µM | > 500 µM | not translated into any antifungal action | >500 µM | >500 µM |  |  |  |  |  |  |  |
| O=C(O)c1ccc(N=Cc2cc(Cl)ccc2O)cc1 [1c, 4-[(5-Chloro-2-hydroxybenzylidene)amino]benzoic acid] | 250 µM (≈ 68.9 µg/mL) | 500 µM (≈ 138 µg/mL) | 125 µM (≈ 34.5 µg/mL) | 125 µM (≈ 34.5 µg/mL) | 125 µM (≈ 34.5 µg/mL) | 125 µM (≈ 34.5 µg/mL) | > 125 µM | > 125 µM |  |  | >500 µM | >500 µM | ≥ 62.5 µM |  |  |  |  |  |  |
| O=C(O)c1ccc(N=Cc2cc(Br)ccc2O)cc1 [1d, 4-[(5-Bromo-2-hydroxybenzylidene)amino]benzoic acid] | 250 µM (≈ 80 µg/mL) | 500 µM (≈ 160 µg/mL) | 125 µM (≈ 40 µg/mL) | 125 µM (≈ 40 µg/mL) | 125 µM (≈ 40 µg/mL) | 125 µM (≈ 40 µg/mL) | 125 µM (≈ 40 µg/mL) | 125 µM (≈ 40 µg/mL) |  |  | >250 µM | >250 µM | ≥ 62.5 µM |  |  |  |  |  |  |
| O=C(O)c1ccc(N=Cc2cc(I)ccc2O)cc1 [1e, 4-[(2-Hydroxy-5-iodobenzylidene)amino]benzoic acid] | 250 µM (≈ 91.8 µg/mL) | 250 µM (≈ 91.8 µg/mL) | 125 µM (≈ 45.9 µg/mL) | 125 µM (≈ 45.9 µg/mL) | 62.5 µM (≈ 22.9 µg/mL) | 62.5 µM (≈ 22.9 µg/mL) | 62.5 µM (≈ 22.9 µg/mL) | 62.5 µM (≈ 22.9 µg/mL) | ≥ 31.2 µM |  | >250 µM | >250 µM | ≥ 62.5 µM |  |  |  |  |  |  |
| O=C(O)c1ccc(N=Cc2cc([N+](=O)[O-])ccc2O)cc1 [1f, 4-[(2-Hydroxy-5-nitrobenzylidene)amino]benzoic acid] | 250 µM (≈ 71.6 µg/mL) | 500 µM (≈ 143 µg/mL) | > 500 µM | > 500 µM | > 500 µM | > 500 µM | 500 µM (≈ 143 µg/mL) | 500 µM (≈ 143 µg/mL) | ≥ 250 µM |  | >500 µM | >500 µM |  | ≥ 250 µM |  |  |  |  |  |
| Cc1ccc(O)c(C=Nc2ccc(C(=O)O)cc2)c1 [1g, 4-[(2-Hydroxy-5-methylbenzylidene)amino]benzoic acid] | 500 µM (≈ 128 µg/mL) | 500 µM (≈ 128 µg/mL) | > 125 µM | > 125 µM | > 125 µM | > 125 µM | > 125 µM | > 125 µM |  | not translated into any antifungal action | >500 µM | >500 µM |  |  |  |  |  |  |  |
| COc1ccc(O)c(C=Nc2ccc(C(=O)O)cc2)c1 [1h, 4-[(2-Hydroxy-5-methoxybenzylidene)amino]benzoic acid] | 250 µM (≈ 67.8 µg/mL) | 500 µM (≈ 136 µg/mL) | 500 µM (≈ 136 µg/mL) | 500 µM (≈ 136 µg/mL) | 500 µM (≈ 136 µg/mL) | 500 µM (≈ 136 µg/mL) | 500 µM (≈ 136 µg/mL) | 500 µM (≈ 136 µg/mL) | ≥ 250 µM |  | >500 µM | >500 µM |  |  |  |  |  |  |  |
| CC(C)(C)c1ccc(O)c(C=Nc2ccc(C(=O)O)cc2)c1 [1j, 4-{[5-(Tert-butyl)-2-hydroxybenzylidene]amino}benzoic acid] | 250 µM (≈ 74.3 µg/mL) | 250 µM (≈ 74.3 µg/mL) | > 500 µM | > 500 µM | > 500 µM | > 500 µM | > 500 µM | > 500 µM |  | not translated into any antifungal action | >500 µM | >500 µM |  |  |  |  |  |  |  |
| O=C(O)c1ccc(N=Cc2c(O)cccc2Cl)cc1 [1k, 4-[(2-Chloro-6-hydroxybenzylidene)amino]benzoic acid] | 250 µM (≈ 68.9 µg/mL) | 500 µM (≈ 138 µg/mL) | 62.5 µM (≈ 17.2 µg/mL) | 125 µM (≈ 34.5 µg/mL) | 125 µM (≈ 34.5 µg/mL) | 250 µM (≈ 68.9 µg/mL) | 125 µM (≈ 34.5 µg/mL) | > 125 µM |  |  | >500 µM | >500 µM |  |  |  |  |  |  |  |
| O=C(O)c1ccc(N=Cc2ccc(Cl)cc2O)cc1 [1l, 4-[(4-Chloro-2-hydroxybenzylidene)amino]benzoic acid] | 250 µM (≈ 68.9 µg/mL) | 500 µM (≈ 138 µg/mL) | 500 µM (≈ 138 µg/mL) | > 500 µM | 500 µM (≈ 138 µg/mL) | > 500 µM | 500 µM (≈ 138 µg/mL) | > 500 µM | ≥ 250 µM |  | >500 µM | >500 µM |  |  |  |  |  |  |  |
| O=C(O)c1ccc(N=Cc2cccc(Cl)c2O)cc1 [1m, 4-[(3-Chloro-2-hydroxybenzylidene)amino]benzoic acid] | 500 µM (≈ 138 µg/mL) | 500 µM (≈ 138 µg/mL) | 62.5 µM (≈ 17.2 µg/mL) | 62.5 µM (≈ 17.2 µg/mL) | 250 µM (≈ 68.9 µg/mL) | 250 µM (≈ 68.9 µg/mL) | 125 µM (≈ 34.5 µg/mL) | 125 µM (≈ 34.5 µg/mL) | ≥ 31.2 µM |  | >500 µM | >500 µM |  |  |  |  |  |  |  |
| O=C(O)c1ccc(N=Cc2cc(Cl)cc(Cl)c2O)cc1 [1n, 4-[(3,5-Dichloro-2-hydroxybenzylidene)amino]benzoic acid] | 500 µM (≈ 155 µg/mL) | 500 µM (≈ 155 µg/mL) | 250 µM (≈ 77.5 µg/mL) | 250 µM (≈ 77.5 µg/mL) | 125 µM (≈ 38.8 µg/mL) | 125 µM (≈ 38.8 µg/mL) | 125 µM (≈ 38.8 µg/mL) | 125 µM (≈ 38.8 µg/mL) | ≥ 125 µM |  | >500 µM | >500 µM |  |  |  |  |  |  |  |
| O=C(O)c1ccc(N=Cc2cc(Cl)cc(Br)c2O)cc1 [1o, 4-[(3-Bromo-5-chloro-2-hydroxybenzylidene)amino]benzoic acid] | 250 µM (≈ 88.6 µg/mL) | 500 µM (≈ 177 µg/mL) | 62.5 µM (≈ 22.2 µg/mL) | 62.5 µM (≈ 22.2 µg/mL) | 62.5 µM (≈ 22.2 µg/mL) | 62.5 µM (≈ 22.2 µg/mL) | 31.2 µM (≈ 11.1 µg/mL) | 31.2 µM (≈ 11.1 µg/mL) |  |  | 500 µM (≈ 177 µg/mL) | 500 µM (≈ 177 µg/mL) |  |  |  |  |  |  |  |
| O=C(O)c1ccc(N=Cc2cc(Cl)cc(I)c2O)cc1 [1p, 4-[(5-Chloro-2-hydroxy-3-iodobenzylidene)amino]benzoic acid] | 250 µM (≈ 100 µg/mL) | 250 µM (≈ 100 µg/mL) | 31.2 µM (≈ 12.5 µg/mL) | 31.2 µM (≈ 12.5 µg/mL) | 15.6 µM (≈ 6.27 µg/mL) | 15.6 µM (≈ 6.27 µg/mL) | 7.81 µM (≈ 3.14 µg/mL) | 7.81 µM (≈ 3.14 µg/mL) |  |  | 125 µM (≈ 50.2 µg/mL) | 125 µM (≈ 50.2 µg/mL) |  |  |  |  |  |  |  |
| O=C(O)c1ccc(N=Cc2cc(I)cc(I)c2O)cc1 [1q, 4-[(2-Hydroxy-3,5-diiodobenzylidene)amino]benzoic acid] | 250 µM (≈ 123 µg/mL) | 250 µM (≈ 123 µg/mL) | 15.6 µM (≈ 7.7 µg/mL) | 15.6 µM (≈ 7.7 µg/mL) | 31.2 µM (≈ 15.4 µg/mL) | 31.2 µM (≈ 15.4 µg/mL) | 15.6 µM (≈ 7.7 µg/mL) | 15.6 µM (≈ 7.7 µg/mL) |  |  | 500 µM (≈ 247 µg/mL) | 500 µM (≈ 247 µg/mL) |  |  |  |  |  |  |  |
| O=C(O)c1ccc(N=Cc2ccc([N+](=O)[O-])o2)cc1 [1r, 4-{[(5-Nitrofuran-2-yl)methylene]amino}benzoic acid] | 62.5 µM (≈ 16.3 µg/mL) | 125 µM (≈ 32.5 µg/mL) | 250 µM (≈ 65.1 µg/mL) | 250 µM (≈ 65.1 µg/mL) | 62.5 µM (≈ 16.3 µg/mL) | 62.5 µM (≈ 16.3 µg/mL) | 500 µM (≈ 130 µg/mL) | 500 µM (≈ 130 µg/mL) |  |  | 500 µM (≈ 130 µg/mL) | 500 µM (≈ 130 µg/mL) |  |  | 16.2 to 32.5 µg/mL | 62.5 to 125 µM | 62.5 to 250 µM (≈ 16.3 to 65.1 µg/mL) |  |  |
| O=C(O)c1ccc(NCc2ccccc2O)cc1 [1u, 4-[(2-Hydroxybenzyl)amino]benzoic acid] | 1000 µM (≈ 243 µg/mL) | 1000 µM (≈ 243 µg/mL) | > 500 µM | > 500 µM | > 500 µM | > 500 µM | > 500 µM | > 500 µM |  | no antimycotic potency | >500 µM | >500 µM |  |  |  |  |  | avoided any antibacterial action | only negligible antimycobacterial activity |
